Source: patent US20110300132A1, “4-AMINOQUINAZOLINE PRODRUGS” (Concert Pharmaceuticals, Inc., priority 2008, published 2011)
Converted amounts (≈) assume the structure as drawn. Like-named read-outs stand apart in the source and are kept apart here.

Key:
[1] = Evaluation of aqueous solubility in different aqueous buffers (HPLC quantification); format: physicochemical; conditions: thermodynamic from solid, equilibrated at 25° C. for 24 hours
Description: Aqueous solubility of the compounds of this invention was determined by suspending sufficient compound in different aqueous buffers to give a maximum final concentration of ≧10 mg/mL of the compound. The resulting suspension was equilibrated at 25° C. for 24 hours then the pH is measured. The suspension was then filtered through a glass fibre C filter into a 96 well plate. The filtrate was diluted by a factor of 10. Quantification was by HPLC with reference to a standard solution in DMSO. Different volumes of the standard, diluted and undiluted sample solutions were injected. The solubility was calculated using the peak areas determined by integration of the peak found at the same retention time as the principal peak in the standard injection.

[2] = as reported on FDA approved label, cited from earlier work
[3] = Buffer: FaSSIF (fasted state simulated intestinal fluid), final pH 6.61 (103), 6.58 (101)

solubility at 24 h [1, 3] [µg/mL]	solubility at 24 h ([1]; aqueous buffer, Buffer: Phosphate pH 6.3, final pH 6.45) [µg/mL]	solubility at 24 h ([1]; aqueous buffer, Buffer: Phosphate pH 6.8, final pH 7.03) [µg/mL]	solubility at 24 h ([1]; aqueous buffer, Buffer: Phosphate pH 7.3, final pH 7.41) [µg/mL]	Structure (SMILES)	Solubility ([2]; 0.1N HCl) [µg/mL]	Solubility ([2]; Water) [µg/mL]
25 (≈ 34 µM)	–	–	–	CS(=O)(=O)CCN(Cc1ccc(-c2ccc3ncnc(Nc4ccc(OCc5cccc(F)c5)c(Cl)c4)c3c2)o1)C(=O)OCOP(=O)(O)O [Compound 101, Phosphonooxymethyl (5-(4-(3-chloro-4-(3-fluorobenzyloxy)phenylamino)quinazolin-6-yl)furan-2-yl)methyl(2-(methylsulfonyl)ethyl)carbamate]	–	–
9100	170	520	4600	CS(=O)(=O)CCN(Cc1ccc(-c2ccc3ncnc(Nc4ccc(OCc5cccc(F)c5)c(Cl)c4)c3c2)o1)C(=O)OCOP(=O)([O-])[O-].[Na+].[Na+] [Compound 103, Sodium (((5-(4-(3-Chloro-4-(3-fluorobenzyloxy)phenylamino)quinazolin-6-yl)furan-2-yl)methyl)(2-(methylsulfonyl)ethyl)carbamoyloxy)methyl phosphate]	–	–
–	–	–	–	CS(=O)(=O)CCNCc1ccc(-c2ccc3ncnc(Nc4ccc(OCc5cccc(F)c5)c(Cl)c4)c3c2)o1.Cc1ccc(S(=O)(=O)O)cc1.Cc1ccc(S(=O)(=O)O)cc1.O [Lapatinib ditosylate, N-[3-Chloro-4-(3-fluorobenzyloxy)phenyl]-6-[5-[2-(methylsulfonyl)ethylaminomethyl]furan-2-yl]quinazolin-4-amine bis(4-methylbenzenesulfonate) hydrate]	1	7
